Reference: PubChem BioAssay AID248 (DTP/NCI, 2004)
Where “and” joins values, the source holds several entries; their conditions need not be identical. Equal values may be shown once. Toxic doses and inconclusive results are not listed. No stated cut-off is given here; in the data, active means T/C of 150% or more; inactive means T/C below 125%.

Tested on: L1210 leukemia ip in BDF1 mice, survival T/C
Experiment: NCI In Vivo Anticancer Drug Screen. Data for tumor model L1210 Leukemia (intraperitoneal) in B6D2F1 (BDF1) mice
Conditions: endpoint: mean survival time, higher = longer survival
Outline: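 Survival endpoint. Drug-treated group vs vehicle group, expressed as T divided by C. Tumor passaged by transplantation.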

[1] = dose: 100.0 mg/kg/injection, schedule: Q04DX003 (ip), vehicle: Klucel (hydroxypropylcellulose) (HPC)
[2] = dose: 200.0 mg/kg/injection, schedule: Q04DX003 (ip), vehicle: Klucel (hydroxypropylcellulose) (HPC)
[3] = dose: 400.0 mg/kg/injection, schedule: Q04DX003 (ip), vehicle: Klucel (hydroxypropylcellulose) (HPC)
[4] = dose: 100.0 mg/kg/injection, schedule: Q01DX001 (ip), vehicle: saline
[5] = dose: 100.0 mg/kg/injection, schedule: Q04DX002 (ip), vehicle: Klucel (hydroxypropylcellulose) (HPC)
[6] = dose: 200.0 mg/kg/injection, schedule: Q04DX002 (ip), vehicle: Klucel (hydroxypropylcellulose) (HPC)
[7] = dose: 400.0 mg/kg/injection, schedule: Q04DX002 (ip), vehicle: Klucel (hydroxypropylcellulose) (HPC)
[8] = dose: 25.0 mg/kg/injection, schedule: Q04DX002 (ip), vehicle: Klucel (hydroxypropylcellulose) (HPC)
[9] = dose: 50.0 mg/kg/injection, schedule: Q04DX002 (ip), vehicle: Klucel (hydroxypropylcellulose) (HPC)
[10] = dose: 200.0 mg/kg/injection, schedule: Q01DX001 (ip), vehicle: saline
[11] = dose: 50.0 mg/kg/injection, schedule: Q01DX009 (ip), vehicle: Klucel (hydroxypropylcellulose) (HPC)
[12] = dose: 100.0 mg/kg/injection, schedule: Q01DX009 (ip), vehicle: Klucel (hydroxypropylcellulose) (HPC)

Measured: T/C

N#CC(C#N)=C(C#N)c1cccn1Cc1ccccc1
inactive: dose: 87.5 mg/kg/injection, schedule: Q01DX009 (ip), vehicle: carboxymethylcellulose (CMC) 96 % of control | dose: 175.0 mg/kg/injection, schedule: Q01DX009 (ip), vehicle: carboxymethylcellulose (CMC) 95 % of control | dose: 350.0 mg/kg/injection, schedule: Q01DX009 (ip), vehicle: carboxymethylcellulose (CMC) 90 % of control

CC(=O)Nc1ccc(C=NCCN=Cc2ccc(NC(C)=O)cc2)cc1
inactive: [1] 97 % of control | [2] 88 % of control | [3] 88 % of control

NC(C(=O)O)C(=O)c1ccccc1 (centres undefined)
inactive: dose: 100.0 mg/kg/injection, schedule: Q01DX009 (ip), vehicle: saline sonified 101 % of control | dose: 100.0 mg/kg/injection, schedule: Q04DX003 (ip), vehicle: saline 102 % of control | dose: 200.0 mg/kg/injection, schedule: Q01DX009 (ip), vehicle: saline sonified 101 % of control | dose: 200.0 mg/kg/injection, schedule: Q04DX003 (ip), vehicle: saline 112 % of control | dose: 400.0 mg/kg/injection, schedule: Q01DX009 (ip), vehicle: saline sonified 106 % of control | dose: 400.0 mg/kg/injection, schedule: Q04DX003 (ip), vehicle: saline 100 % of control

NC(=S)NN=C1CCN(Cc2ccccc2)CC1
inactive: dose: 50.0 mg/kg/injection, schedule: Q01DX001 (ip), vehicle: saline 95 % of control | [4] 101 % of control

O=C(NC(=S)N1CCCC1)c1ccccc1
inactive: [5] 96 % of control | [6] 107 % of control | [7] 96 % of control

S=C1SC2CCCCC2S1 (centres undefined)
inactive: [8] 100 % of control | [9] 106 % of control | [5] 95 % of control | [1] 103 % of control | [2] 94 % of control | [3] 103 % of control

COc1ccc(N)cc1NC(C)=O
inactive: [4] 102 % of control | [10] 110 % of control

CCCCCCCCCCCCC(O)(CCC)C(=O)O (centres undefined)
inactive: [5] 102 % of control | [6] 98 % of control | [7] 98 % of control

O=C(Nc1ccc(S(=O)(=O)F)cc1)c1ccc(COc2ccc([N+](=O)[O-])cc2Cl)cc1
inactive: dose: 100.0 mg/kg/injection, schedule: Q01DX009 (ip), vehicle: saline with Tween-80 92 % of control | dose: 200.0 mg/kg/injection, schedule: Q01DX009 (ip), vehicle: saline with Tween-80 94 % of control | dose: 400.0 mg/kg/injection, schedule: Q01DX009 (ip), vehicle: saline with Tween-80 94 % of control

COC(=O)C(C)CSP(=S)(Oc1ccccc1)Oc1ccccc1 (centres undefined)
inactive: dose: 100.0 mg/kg/injection, schedule: Q04DX002 (ip), vehicle: saline with Tween-80 105 % of control | dose: 200.0 mg/kg/injection, schedule: Q04DX002 (ip), vehicle: saline with Tween-80 105 % of control | dose: 400.0 mg/kg/injection, schedule: Q04DX002 (ip), vehicle: saline with Tween-80 102 % of control

CC(=O)OC1CCC2(C)C3=C(CCC2C1(C)C)C1(C)CCC(C(C)CCC=C(C)C)C1(C)CC3 (centres undefined)
inactive: [11] 102 % of control | [12] 94 % of control

COC(=O)C(=O)CC(=O)c1cccc(OC)c1
inactive: [8] 93 % of control | [9] 100 % of control | [5] 107 % of control and 123 % of control | [6] 93 % of control and 100 % of control | [7] 103 % of control

CCOC(=O)CN1C(=O)C(Cl)=C(Cl)C1=O
inactive: dose: 3.12 mg/kg/injection, schedule: Q01DX009 (ip), vehicle: saline with Tween-80 98 % of control | dose: 6.25 mg/kg/injection, schedule: Q01DX009 (ip), vehicle: saline with Tween-80 98 % of control | dose: 12.5 mg/kg/injection, schedule: Q01DX009 (ip), vehicle: saline with Tween-80 96 % of control

CCC1([N+](=O)[O-])COP(=O)(OP2(=O)OCC(CC)([N+](=O)[O-])CO2)OC1 (centres undefined)
inactive: [4] 116 % of control | [10] 97 % of control | dose: 400.0 mg/kg/injection, schedule: Q01DX001 (ip), vehicle: saline 100 % of control

CC(=O)c1ccc(OCC(=O)O)cc1
inactive: dose: 100.0 mg/kg/injection, schedule: Q01DX001 (ip), vehicle: Klucel (hydroxypropylcellulose) (HPC) 97 % of control | dose: 200.0 mg/kg/injection, schedule: Q01DX001 (ip), vehicle: Klucel (hydroxypropylcellulose) (HPC) 97 % of control | dose: 400.0 mg/kg/injection, schedule: Q01DX001 (ip), vehicle: Klucel (hydroxypropylcellulose) (HPC) 101 % of control

CC(NC(=O)c1cnc2ccccc2n1)C(=O)NCC(=O)O (centres undefined)
inactive: dose: 100.0 mg/kg/injection, schedule: Q01DX001 (ip), vehicle: carboxymethylcellulose (CMC) 93 % of control | dose: 200.0 mg/kg/injection, schedule: Q01DX001 (ip), vehicle: carboxymethylcellulose (CMC) 89 % of control | dose: 400.0 mg/kg/injection, schedule: Q01DX001 (ip), vehicle: carboxymethylcellulose (CMC) 94 % of control

CC1(C)OCC(C2OC(N)C(O)C2O)O1 (centres undefined)
inactive: dose: 100.0 mg/kg/injection, schedule: Q04DX002 (ip), vehicle: saline 94 % of control | dose: 200.0 mg/kg/injection, schedule: Q04DX002 (ip), vehicle: saline 97 % of control | dose: 400.0 mg/kg/injection, schedule: Q04DX002 (ip), vehicle: saline 102 % of control

CN1C(=O)OC2(CCN(Cc3ccccc3)CC2)C1=O
inactive: [1] 102 % of control | [2] 90 % of control | [3] 98 % of control

CCCC(C)CC1CCCCC1=O (centres undefined)
inactive: dose: 75.0 mg/kg/injection, schedule: Q04DX003 (ip), vehicle: saline 97 % of control | dose: 150.0 mg/kg/injection, schedule: Q04DX003 (ip), vehicle: saline 96 % of control | dose: 300.0 mg/kg/injection, schedule: Q04DX003 (ip), vehicle: saline 103 % of control

COc1ccc(-c2cc3c(OC)ccc(OC)c3[nH]2)cc1
inactive: [5] 93 % of control | [6] 102 % of control | [7] 93 % of control

O=C(/C(=C\c1ccccc1)CN1CCOCC1)c1ccc(Br)cc1
inactive: dose: 12.5 mg/kg/injection, schedule: Q01DX009 (ip), vehicle: Klucel (hydroxypropylcellulose) (HPC) 96 % of control | dose: 25.0 mg/kg/injection, schedule: Q01DX009 (ip), vehicle: Klucel (hydroxypropylcellulose) (HPC) 93 % of control | [11] 91 % of control | dose: 100.0 mg/kg/injection, schedule: Q04DX003 (ip), vehicle: saline with Tween-80 87 % of control | dose: 200.0 mg/kg/injection, schedule: Q04DX003 (ip), vehicle: saline with Tween-80 93 % of control

CC(=C/c1ccccc1)/C=N/N=C(N)N
inactive: dose: 3.8 mg/kg/injection, schedule: Q01DX Z (ip), vehicle: saline 97 % of control | dose: 7.5 mg/kg/injection, schedule: Q01DX Z (ip), vehicle: saline 94 % of control | dose: 15.0 mg/kg/injection, schedule: Q01DX Z (ip), vehicle: saline 90 % of control

S=C(c1ccccc1)N(c1ccccc1)C1CCCCC1
inactive: dose: 100.0 mg/kg/injection, schedule: Q04DX003 (ip), vehicle: gum acacia 91 % of control | dose: 200.0 mg/kg/injection, schedule: Q04DX003 (ip), vehicle: gum acacia 88 % of control | dose: 400.0 mg/kg/injection, schedule: Q04DX003 (ip), vehicle: gum acacia 88 % of control

CC(=O)c1c(C)c([N+](=O)[O-])c(C(C)(C)C)c([N+](=O)[O-])c1C
inactive: [12] 100 % of control | dose: 200.0 mg/kg/injection, schedule: Q01DX009 (ip), vehicle: Klucel (hydroxypropylcellulose) (HPC) 97 % of control | dose: 400.0 mg/kg/injection, schedule: Q01DX009 (ip), vehicle: Klucel (hydroxypropylcellulose) (HPC) 96 % of control
